Measurements reported in paper PMC4865820, “Branched Peptide, B2088, Disrupts the Supramolecular Organization of Lipopolysaccharides and Sensitizes the Gram-negative Bacteria” (Scientific Reports, 2016).
Converted amounts (≈) assume the structure as drawn. Marks after values point to notes of the source that are not given here. Values belong to the molecule of their own block, whether it stands above or below them. Positions of bridges follow the written chain, without caps; N, C: chain ends. Non-standard residues stand in square brackets, D forms with d. Residues, ends and D or L forms follow the SMILES beside them. Chains are numbered I, II in the order given. *: point of attachment. X1 = CC[C@H](C)CCCCC(=O)*; Dab = NCC[C@H](N)C(=O)O

Legend:
K. pneumoniae 07955 = assay: microbe, parasite or virus in culture; type: cell-based; details: for MIC: Klebsiella pneumoniae, 07955, individual peptide/antibiotics, read-out: MIC against K. pneumoniae 07955
K. pneumonia 4299 = assay: microbe, parasite or virus in culture; type: cell-based, K. pneumoniae; details: for MIC: Klebsiella pneumoniae, 4299, individual peptide/antibiotics, read-out: MIC against K. pneumoniae 4299
In short: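 Peptides two-fold diluted in Mueller-Hinton Broth (0.0976–50 μg/ml final) against 10^5–10^6 CFU/ml inoculum, 37 °C for 24 h with OD600 monitored every 30 min. MIC = lowest concentration with no visible growth; two independent duplicates.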

P. aeruginosa DR4877/07 [1] = type: cell-based; details: for Fractional inhibitory concentration of peptide/PMB, combination with Chloarm / Fractional inhibitory concentration of peptide/PMB, combination with Erythro / Fractional inhibitory concentration of peptide/PMB, combination with Levo / Fractional inhibitory concentration of peptide/PMB, combination with Tobra: first number in parenthesis; for Fold decrease in the MIC of antibiotics at sub-lethal/sub-inhibitory concentrations of B2088: multidrug resistant P. aeruginosa 4877; for Fractional inhibitory concentration of antibiotic, Chloarm combination / Fractional inhibitory concentration of antibiotic, Erythro combination / Fractional inhibitory concentration of antibiotic, Levo combination / Fractional inhibitory concentration of antibiotic, Tobra combination: second number in parenthesis; for FICI of B2088-antibiotic combination: lowest FICI reported, two independent duplicates
In short: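 Checkerboard combinations of peptide and antibiotic, each 2-fold diluted up to 1× MIC in MHB, were tested against ~10^6 CFU/ml final inoculum. Plates were incubated 24 h at 37 °C, with growth read at OD600. FICI was the sum of the combination-to-alone MIC ratios for each agent, and the lowest FICI from duplicate experiments was reported.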

[2] = test system: A549 cells infected with P. aeruginosa ATCC 9027; assay: Intracellular bacterial load in infected A549 cells; type: cell-based; details: 24 h; for Intracellular bacterial load: antibiotic alone, gatifloxacin at 2 μg/ml
Protocol: Human lung A549 epithelial cells (ATCC CCL185) were seeded at a density of 10^5 cells/well in a 24 well plate. Next day cells were infected with P. aeroginosa 9027 strains at the multiplicity of infection of 5 for 2 h. Cells were then washed thrice with PBS followed by DMEM to remove the extracellular bacteria. The washed cells were subsequently treated with 200 μg/ml gentamicin to kill any extracellular bacteria. After 1 h cells were washed with PBS again to remove the dead bacteria and the cells were either mixed with antibiotics (Tobramycin or Gatifloxacin) alone or in combination with B2088. After 24 h, the cells were lysed with 0.1% Triton-X100 and the lysates were serially diluted and plated on to a tryptic soy agar (TSA) plates for colony counting.

K. pneumoniae 31158 = assay: microbe, parasite or virus in culture; type: cell-based; details: for MIC: Klebsiella pneumoniae, 31158, individual peptide/antibiotics, read-out: MIC against K. pneumoniae 31158
P. aeruginosa DR4877/07 [3] = assay: microbe, parasite or virus in culture; details: for MIC: Pseudomonas aeruginosa, DR4877/07, 24 h, read-out: MIC of antibiotics
Protocol: MIC of each peptide was determined using the microdilution method in a 96 well microtitre plates (SPL Life Sciences Co., Ltd, Korea). Two-fold serial dilutions of each peptide in Mueller-Hinton Broth (MHB) was prepared from a 1 mg/ml stock solution of the peptide in the same broth, to obtain a final concentration in the range of 0.0976–50 μg/ml in each well. Bacterial suspensions (P. aeruginosa ATCC 27853, P. aeruginosa 4877, P. aeruginosa 23155, K. pneumoniae ATCC 10031 and K. pneumoniae 4299) were prepared by suspending the overnight cultured bacteria in saline and adjusting the inoculum to ~10^8 colony forming units (CFU) per ml. A further 150-fold dilution was then prepared in MHB to achieve a final cell density of 10^5–10^6 CFU/ml. In each well, 100 μl of inoculum was mixed with the equal volume of peptides at their 2× concentration. Positive and negative controls contained 200 μl of inoculum (without any peptide) and broth alone (no peptide/inoculum) respectively. Another negative control in which MHB containing 200 μl of peptide alone in its highest concentration tested (50 μg/ml) was also included to ensure that the optical density measured in the test wells was not due to turbidity of the peptides in solution. The 96 well polystyrene plates were then incubated at 37 °C for 24 h and the optical density at 600 nm (OD600) was measured every 30 min continuously using a TECAN microplate reader (TECAN Infinite 200, Austria).

[4] = MIC of B2088 6.25 μg/ml, MHB, ~10^6 CFU/ml, 37 °C, 24 h
[5] = MHB, 10^5–10^6 CFU/ml, 37 °C, 24 h, two independent duplicates

SMILES: CC(C)[C@H](NC(=O)[C@H](CCCCN)NC(=O)[C@H](CCCNC(=N)N)NC(=O)CNC(=O)[C@@H](N)CCCNC(=N)N)C(=O)N[C@H](C(=O)N[C@@H](CCCNC(=N)N)C(=O)N[C@@H](CCCNC(=N)N)C(=O)NCCCC[C@H](NC(=O)[C@H](CCCNC(=N)N)NC(=O)[C@H](CCCNC(=N)N)NC(=O)[C@@H](NC(=O)[C@@H](NC(=O)[C@H](CCCCN)NC(=O)[C@H](CCCNC(=N)N)NC(=O)CNC(=O)[C@@H](N)CCCNC(=N)N)C(C)C)C(C)C)C(=O)N[C@@H](CCCCN)C(=O)O)C(C)C [B2088] (I: H-RGRKVVRRKK-OH / II: H-RGRKVVRR; amide I:9-II:C; N-terminus and C-terminus assumed)
MIC against K. pneumoniae 07955 (K. pneumoniae 07955; 07955, 24 h): 6.25 µg/mL (≈ 2.73 µM)
MIC against K. pneumoniae 4299 (K. pneumonia 4299; 24 h): 12.5 µg/mL (≈ 5.46 µM)
Minimum Inhibitory Concentration against K. pneumonia 4299 (K. pneumonia 4299; 24 h): 2.7 µM
Fractional inhibitory concentration of peptide/PMB, combination with Chloarm (P. aeruginosa DR4877/07 [1]): (0.25,0.25)
Fractional inhibitory concentration of peptide/PMB, combination with Erythro (P. aeruginosa DR4877/07 [1]): (0.5,0.5) ^‡
Fractional inhibitory concentration of peptide/PMB, combination with Levo (P. aeruginosa DR4877/07 [1]): (0.5,0.5)
Fractional inhibitory concentration of peptide/PMB, combination with Tobra (P. aeruginosa DR4877/07 [1]): (0.25,0.25)
Fold decrease in the MIC of antibiotics at sub-lethal/sub-inhibitory concentrations of B2088 (P. aeruginosa DR4877/07 [1]): 2-8 fold
Fractional inhibitory concentration of antibiotic, Chloarm combination (P. aeruginosa DR4877/07 [1]): (0.25,0.25)
Fractional inhibitory concentration of antibiotic, Erythro combination (P. aeruginosa DR4877/07 [1]): (0.5,0.5) ^‡
Fractional inhibitory concentration of antibiotic, Levo combination (P. aeruginosa DR4877/07 [1]): (0.5,0.5)
Fractional inhibitory concentration of antibiotic, Tobra combination (P. aeruginosa DR4877/07 [1]): (0.25,0.25)
Intracellular bacterial burden ([2]; B2088 alone at 200 μg/ml): did not decrease the intracellular bacterial burden
MIC against K. pneumoniae 31158 (K. pneumoniae 31158; 31158, 24 h): 12.5 µg/mL (≈ 5.46 µM)

MIC (K. pneumoniae 07955): 1.56 µg/mL (≈ 4.16 µM)
MIC (K. pneumonia 4299): 1.56 µg/mL (≈ 4.16 µM)
MIC (P. aeruginosa DR4877/07 [3]): 31.2 µg/mL
MIC of antibiotics in the presence of ¼× sub-MIC of B2088 (P. aeruginosa DR4877/07 [1]; [4]): 15.6 µg/mL
MIC of antibiotics in the presence of ½× sub-MIC of B2088 (P. aeruginosa DR4877/07 [1]; [4]): 7.8 µg/mL
MIC of antibiotics in the presence of ⅛× sub-MIC of B2088 (P. aeruginosa DR4877/07 [1]; [4]): 15.6 µg/mL
MIC (K. pneumoniae 31158): 1.56 µg/mL (≈ 4.16 µM)
SMILES: COc1c(N2CCNC(C)C2)c(F)cc2c(=O)c(C(=O)O)cn(C3CC3)c12 (stereo not shown) [Gatifloxacin]
FICI of polymyxin B-antibiotic combination (P. aeruginosa DR4877/07 [1]): 0.63
FICI of B2088-antibiotic combination (P. aeruginosa DR4877/07 [1]): 0.63
Intracellular bacterial load [2]: marked decrease in the intracellular bacterial burden

SMILES: CC[C@H](C)CCCCC(=O)N[C@@H](CCN)C(=O)N[C@H](C(=O)N[C@@H](CCN)C(=O)N[C@H]1CCNC(=O)[C@H]([C@@H](C)O)NC(=O)[C@H](CCN)NC(=O)[C@H](CCN)NC(=O)[C@H](CC(C)C)NC(=O)[C@@H](Cc2ccccc2)NC(=O)[C@H](CCN)NC1=O)[C@@H](C)O [Polymyxin B, polymyxin B, reference compound] (X1-[Dab]T[Dab][Dab][Dab][dF]L[Dab][Dab]T; lactam 4-C (inferred); N-terminus assumed)
Minimum Inhibitory Concentration against K. pneumonia 4299 (K. pneumonia 4299; [5]): 1.13 µM
Minimum Inhibitory Concentration against P. aeruginosa DR4877/07 (P. aeruginosa DR4877/07 [3]; [5]): 1.13 µM
MIC of Polymyxin B against this strain (P. aeruginosa DR4877/07 [3]; alone): 1.56 µg/mL
Fractional inhibitory concentration of peptide/PMB, combination with Chloarm (P. aeruginosa DR4877/07 [1]): 0.125
Fractional inhibitory concentration of peptide/PMB, combination with Erythro (P. aeruginosa DR4877/07 [1]): 0.25
Fractional inhibitory concentration of peptide/PMB, combination with Levo (P. aeruginosa DR4877/07 [1]): 0.5
Fractional inhibitory concentration of peptide/PMB, combination with Tobra (P. aeruginosa DR4877/07 [1]): (0.5,0.5)
Fractional Inhibitory Concentration Index with Chloarm (P. aeruginosa DR4877/07 [1]; peptide + chloramphenicol): 0.63
Fractional Inhibitory Concentration Index with Erythro (P. aeruginosa DR4877/07 [1]; peptide + erythromycin): 0.75
Fractional Inhibitory Concentration Index with Levo (P. aeruginosa DR4877/07 [1]; peptide + levofloxacin): 0.75
Fractional Inhibitory Concentration Index with Tobra (P. aeruginosa DR4877/07 [1]; peptide + tobramycin): 1.0
Fractional inhibitory concentration of antibiotic, Chloarm combination (P. aeruginosa DR4877/07 [1]): 0.5
Fractional inhibitory concentration of antibiotic, Erythro combination (P. aeruginosa DR4877/07 [1]): 0.5
Fractional inhibitory concentration of antibiotic, Levo combination (P. aeruginosa DR4877/07 [1]): 0.25
Fractional inhibitory concentration of antibiotic, Tobra combination (P. aeruginosa DR4877/07 [1]): (0.5,0.5)

SMILES: NC[C@H]1O[C@H](O[C@H]2[C@H](O)[C@@H](O[C@H]3O[C@H](CO)[C@@H](O)[C@H](N)[C@H]3O)[C@H](N)C[C@@H]2N)[C@H](N)C[C@@H]1O [Tobramycin]
MIC (K. pneumoniae 07955): 25 µg/mL (≈ 53.5 µM)
MIC (K. pneumonia 4299): 0.024 µg/mL (≈ 0.0513 µM)
MIC (P. aeruginosa DR4877/07 [3]): 800 µg/mL
FICI of polymyxin B-antibiotic combination (P. aeruginosa DR4877/07 [1]): 1.0
MIC of antibiotics in the presence of ¼× sub-MIC of B2088 (P. aeruginosa DR4877/07 [1]; [4]): 200 µg/mL
MIC of antibiotics in the presence of ½× sub-MIC of B2088 (P. aeruginosa DR4877/07 [1]; [4]): 200 µg/mL
FICI of B2088-antibiotic combination (P. aeruginosa DR4877/07 [1]): 0.5
Fold decrease in the MIC of antibiotics at sub-lethal/sub-inhibitory concentrations of B2088 (P. aeruginosa DR4877/07 [1]): 4 fold
Intracellular bacterial load [2]: decreased the intracellular bacterial load
MIC (K. pneumoniae 31158): 0.012 µg/mL (≈ 0.0257 µM)
